From ChEMBL document CHEMBL1629710, “Synthesis and biological evaluation of N-substituted-3,5-diphenyl-2-pyrazoline derivatives as cyclooxygenase (COX-2) inhibitors” (Eur J Med Chem, 2010)
Active and inactive are the calls of the source. No cut-off for these calls is given here.

What was measured:
[1] = molecular target: Prostaglandin G/H synthase 1 (Homo sapiens) (UniProt P23219); test: Inhibition of human COX1 from platelet microsomes
[2] = molecular target: T1, Prostaglandin G/H synthase 2 (Homo sapiens, UniProt P35354); test: Inhibition of human recombinant COX2 expressed in baculovirus infected SF21 cell; format: cell-based
T1 sequence (P35354 whole entry): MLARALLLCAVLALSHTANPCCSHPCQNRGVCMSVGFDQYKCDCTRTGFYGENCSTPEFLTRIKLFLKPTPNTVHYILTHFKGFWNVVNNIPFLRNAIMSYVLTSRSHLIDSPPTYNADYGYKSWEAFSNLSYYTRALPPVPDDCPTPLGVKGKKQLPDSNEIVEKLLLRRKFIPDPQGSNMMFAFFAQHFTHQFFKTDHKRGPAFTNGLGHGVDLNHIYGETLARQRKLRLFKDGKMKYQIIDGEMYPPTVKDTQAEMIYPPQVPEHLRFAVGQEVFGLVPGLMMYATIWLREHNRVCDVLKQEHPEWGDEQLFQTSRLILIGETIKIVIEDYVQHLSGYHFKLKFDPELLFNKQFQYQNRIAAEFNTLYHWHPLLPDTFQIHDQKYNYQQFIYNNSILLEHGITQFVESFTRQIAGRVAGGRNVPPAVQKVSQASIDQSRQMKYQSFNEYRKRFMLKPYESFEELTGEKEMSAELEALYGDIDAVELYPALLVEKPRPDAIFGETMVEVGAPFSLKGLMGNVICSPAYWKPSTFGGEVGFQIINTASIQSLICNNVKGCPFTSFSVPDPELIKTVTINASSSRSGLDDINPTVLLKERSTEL

[3] = molecular target: T2, Prostaglandin G/H synthase 2 (Homo sapiens) (UniProt P35354); test: Inhibition of human recombinant COX2 expressed in baculovirus infected SF21 cell at 100 uM
T2 sequence (whole entry): T1 sequence (P35354 whole entry)

[4] = molecular target: T2, Prostaglandin G/H synthase 2 (Homo sapiens); test: Inhibition of human recombinant COX2 expressed in baculovirus infected SF21 cell at 25 uM

Prostaglandin G/H synthase 1 (Homo sapiens), sequence (P23219 whole entry): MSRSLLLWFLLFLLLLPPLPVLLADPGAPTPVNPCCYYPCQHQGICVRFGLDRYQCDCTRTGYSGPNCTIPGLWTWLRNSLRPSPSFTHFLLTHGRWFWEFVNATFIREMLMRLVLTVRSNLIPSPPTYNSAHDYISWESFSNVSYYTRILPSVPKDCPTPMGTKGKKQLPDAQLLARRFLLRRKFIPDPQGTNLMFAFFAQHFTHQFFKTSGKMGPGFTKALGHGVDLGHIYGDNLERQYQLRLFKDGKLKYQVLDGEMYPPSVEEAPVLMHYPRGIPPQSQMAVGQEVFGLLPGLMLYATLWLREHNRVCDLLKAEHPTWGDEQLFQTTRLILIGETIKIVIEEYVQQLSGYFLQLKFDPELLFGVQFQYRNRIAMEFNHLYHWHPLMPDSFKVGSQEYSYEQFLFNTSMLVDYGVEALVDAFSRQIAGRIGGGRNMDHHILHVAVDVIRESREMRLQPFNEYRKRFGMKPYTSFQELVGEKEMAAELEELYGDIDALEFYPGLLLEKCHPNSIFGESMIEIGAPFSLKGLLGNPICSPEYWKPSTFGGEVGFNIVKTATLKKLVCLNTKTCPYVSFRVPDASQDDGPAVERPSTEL

| inhibition [1] | IC50 [2] [µM] | inhibition [3] | inhibition [4] | Compound |
| --- | --- | --- | --- | --- |
| inactive | 3.2 |  |  | CC(=O)N1N=C(c2ccc(S(C)(=O)=O)cc2)CC1c1ccccc1OCc1ccccc1 (stereo unspecified) |
| inactive | 19.8 |  |  | CC(=O)N1N=C(c2ccc(S(C)(=O)=O)cc2)CC1c1ccc(C(F)(F)F)cc1 (stereo unspecified) |
| inactive |  | inactive |  | CC(=O)N1N=C(c2ccc(S(C)(=O)=O)cc2)CC1c1ccc(OCc2ccccc2)cc1 (stereo unspecified) |
| inactive |  |  | inactive | CS(=O)(=O)c1ccc(C2=NN(C(N)=S)C(c3cccc(OCc4ccccc4)c3)C2)cc1 (stereo unspecified) |
| inactive | 6.77 |  |  | CC(=O)N1N=C(c2ccc(S(C)(=O)=O)cc2)CC1c1ccc(C)cc1 (stereo unspecified) |
| inactive |  | inactive |  | CC(=O)N1N=C(c2ccc(S(C)(=O)=O)cc2)CC1c1cccc(OCc2ccccc2)c1 (stereo unspecified) |
| inactive | 9.35 |  |  | CS(=O)(=O)c1ccc(C2=NN(C(N)=S)C(c3ccc(Cl)cc3)C2)cc1 (stereo unspecified) |
| inactive | 7.61 |  |  | COc1ccc(C2CC(c3ccc(S(C)(=O)=O)cc3)=NN2C(C)=O)cc1 (stereo unspecified) |
| inactive |  |  | inactive | CS(=O)(=O)c1ccc(C2=NN(C(N)=S)C(c3ccc(OCc4ccccc4)cc3)C2)cc1 (stereo unspecified) |
| inactive | 21.7 |  |  | CC(=O)N1N=C(c2ccc(S(C)(=O)=O)cc2)CC1c1ccc(Cl)cc1 (stereo unspecified) |
| inactive |  |  | inactive | CS(=O)(=O)c1ccc(C2=NN(C(N)=S)C(c3ccccc3OCc3ccccc3)C2)cc1 (stereo unspecified) |
| inactive |  | inactive |  | CS(=O)(=O)c1ccc(C2=NN(C(N)=S)C(c3ccc(F)cc3)C2)cc1 (stereo unspecified) |
| inactive |  |  | inactive | COc1ccc(C2CC(c3ccc(S(C)(=O)=O)cc3)=NN2C(N)=S)cc1 (stereo unspecified) |
| inactive |  | inactive |  | CC(=O)N1N=C(c2ccc(S(C)(=O)=O)cc2)CC1c1ccccc1 (stereo unspecified) |
| inactive |  |  | inactive | CS(=O)(=O)c1ccc(C2=NN(C(N)=S)C(c3ccc(C(F)(F)F)cc3)C2)cc1 (stereo unspecified) |
| inactive | 50.3 |  |  | CS(=O)(=O)c1ccc(C2=NN(C(N)=S)C(c3ccccc3)C2)cc1 (stereo unspecified) |
| inactive | 19.6 |  |  | CC(=O)N1N=C(c2ccc(S(C)(=O)=O)cc2)CC1c1ccc(F)cc1 (stereo unspecified) |
| inactive | 31.9 |  |  | Cc1ccc(C2CC(c3ccc(S(C)(=O)=O)cc3)=NN2C(N)=S)cc1 (stereo unspecified) |
